Measured values: patent US20240226232A9, “PROTEIN-BASED THERAPIES FOR OCULAR CONDITIONS” (The Regents of the University of Colorado, A Body Corporate, priority 2021, published 2024)

What was measured:
[1] = tested on: Human retinal endothelial cells (HRECs); assay: Pro-inflammatory cytokine-mediated apoptosis of HRECs, cleaved caspase-3 Western blot; format: cell-based; settings: 200 μg/mL peptide for three hours, then cytokine mixture (CM) 48 hours, CM only approx. 1:1
Description: The sequence of the first scrambled control peptide was […] (SEQ ID NO: 4), and the sequence of the second scrambled control peptide was […] (SEQ ID NO: 5). All test cells were then treated with a combination of pro-inflammatory cytokines (IFN-γ at 50 U/mL+TNF-α at 20 ng/mL+IL-1β at 20 ng/mL) for 48 hours.
Cell lysates were prepared using 1×RIPA buffer containing a protease inhibitor cocktail. Protein concentrations of the cell lysates were measured using the BCA method, and 25 μg of protein were used for immunoblotting. To measure HREC apoptosis, the cells were immunostained for active (cleaved) caspase-3, specifically, which is a marker for apoptosis. β-actin antibody staining was used as a control for measuring levels of a housekeeping protein and for calculating protein density compared to caspase-3 levels.

[2] = tested on: RGCs; assay: Silicone oil mouse model of ocular hypertension, Brn3a-positive RGC count after intravitreal peptide; format: in vivo, mice; settings: single 1 μg intravitreal dose, day 28
Text: The second ocular hypertension model was generated by anesthetizing mice via intraperitoneal injection of ketamine/xylazine supplemented with topical application of 0.5% proparacaine hydrochloride. A 33G needle was tunneled through the cornea of each tested eye at the superotemporal side close to the limbus to reach the anterior chamber without injuring the lens or iris. […] After the injection, the upper eyelid was gently massaged to close the corneal incision and minimize oil leakage, and veterinary antibiotic ointment was applied to the surface of the injected eye to prevent infection.
After two weeks, the silicone oil droplet was removed. […] Veterinary antibiotic ointment was applied to the surface of the eye after oil removal.
The intraocular pressure of each eye was monitored once weekly until four weeks after silicone oil injection using a tonometer under anesthesia with a sustained flow of isoflurane (5% isoflurane at 2 L/minute mixed with oxygen). Two weeks after oil removal (day 28), retinas were removed and immunostained with Brn3a and βIII-tubulin antibodies to visualize and count the surviving RGCs.

[3] = tested on: RGCs; assay: Microbead mouse model of ocular hypertension, Brn3a-positive RGC count and βIII-tubulin staining after intravitreal peptide; format: in vivo, mice; settings: 1 μg intravitreal once weekly for three weeks; for RGCs per mm^2 in retina after six weeks: control almost 3,400, vehicle less than 2,300
Description: The first ocular hypertension model was generated by initially anesthetizing mice via intraperitoneal injection of ketamine/xylazine supplemented with a topical application of 0.5% proparacaine hydrochloride. […] The cornea was gently punctured near the center using a 33G needle, and a small air bubble was injected to lift the anterior chamber of the eye. […] An antibiotic ointment was applied topically on the injected eye to prevent infection.
The intraocular pressure was measured weekly for six weeks using a tonometer. In particular, the mice were placed in an anesthetic chamber filled with a sustained flow of isoflurane (5% isoflurane at 2 L/minute mixed with oxygen). The tonometer took five measurements for each weekly check-in, eliminated the high and low readings, and generated an average intraocular pressure from the remaining readings for each mouse.
After six weeks of microbead injection, the eyes were dissected out and post-fixed with 4% PFA overnight at 4° C. The retinas were subsequently dissected out and washed three times in PBS before blocking (5% normal donkey serum and 1% Triton X-100 in PBS) overnight. Whole-mount retinas were then immunostained for Brn3a and βIII-tubulin (1:500 dilution), which are markers for RGCs and axonal cells, respectively. The retinas were then stained with Alexa Fluor 488 donkey anti-mouse or Texas red-conjugated goat anti-rabbit IgG (1:250 dilution). Four image fields from each retinal region were obtained using a 20× lens with a Zeiss confocal. The Brn3a-positive RGC numbers were counted (cells/mm^2) in the mid-peripheral regions from four quadrants of the whole-mounted retina using the ImageJ software (NIH). Contralateral uninjured eyes were used as a control.

[4] = tested on: retinal capillary cells; assay: I/R injury mouse model, acellular retinal capillary count; format: in vivo, C57BL/6J mice; settings: 0.5 μg intravitreal immediately after I/R injury and again after one week; day 14
Description: This ocular hypertension model was generated by initially anesthetizing 12-week-old C57BL/6J mice via intraperitoneal injection of ketamine/xylazine supplemented with a topical application of 0.5% proparacaine hydrochloride. To perform the I/R injury, the right eye was cannulated into the anterior chamber with a 33-gauge needle connected to an elevated pouch containing 250 ml of 0.9% NaCl solution. […] The PBS-injected eyes were used as vehicle controls. The contralateral eyes were used as additional controls.
After careful removal of the internal limiting membrane (ILM), retinas were placed in 12-well plates with Tris-HCl buffer at a pH of 7.8, and then shaken overnight to loosen the remaining RGCs. The retinas were then transferred to glass microscopy slides and the remaining neuronal tissues carefully dislodged through gentle agitation produced by a 20-μL pipette in Tris-HCl. Periodic acid Schiff (PAS) stain was used to visualize the isolated retinal capillary layer. An inverted fluorescence microscope was used to image the mounted capillaries, and the acellular capillaries from each treatment group were counted and analyzed.

[5] = tested on: IL-1β; assay: I/R injury mouse model, retinal cytokine mRNA by quantitative real-time PCR; format: in vivo, mice; settings: two days after I/R injury; 0.5 μg intravitreal
Description: (§1) To measure pro-inflammatory cytokine levels, mice were sacrificed, and retinas were dissected two days after I/R injury. Total RNA was then lysed from the retinas, two micrograms of RNA was reverse-transcribed to synthesize cDNA, and quantitative real-time PCR was performed. The sequences of the PCR primers were as follows: TNF-α forward primer—5′-[…]-3′ and reverse primer—[…]-3′; IL-1β forward primer—5′-5′-[…]-3′ and reverse primer—5′-[…]-3; IFN-γ forward primer—5′-[…]-3′ and reverse primer—5′-[…]-3′. The mRNA levels were analyzed using the comparative Ct method (2-ΔΔCT) and then normalized to β-actin (forward primer—5′-[…]-3′ and reverse primer—5′-[…]-3′).

[6] = tested on: TNF-α; assay: as above; format: in vivo, mice; settings: two days after I/R injury; 0.5 μg intravitreal
Description: as §1

FEPSVRFSKVDHLVKENDLVK [Scr-2]
density ratio of cleaved caspase-3 to β-actin [1]: greater density ratio

SLKEKRNFDVSEVKHVLFVDP [Scr-1]
density ratio of cleaved caspase-3 to β-actin [1]: greater density ratio

G^73HFSVLLDVK(acetyl)HFSPEEIAVK^91 [peptain-3a]
RGC death reduced by (compared to PBS-treated control 206) [2]: 14.2% | axonal degeneration (βIII-tubulin immunostaining) [3]: inhibited axonal degeneration | reduction in RGC death (compared to vehicle control group) [3]: 12% | RGCs per mm^2 in retina after six weeks [3]: about 3,000 RGCs per mm^2

DRFSVNLDVKHFSPEELKVKV [peptain-1]
density ratio of cleaved caspase-3 to β-actin [1]: ~0.5 | RGC death reduced by (compared to PBS-treated control 206) [2]: 15.7% | number of acellular capillaries per retina [4]: lower number of per-retina acellular capillaries | reduction of the increase in IL-1β expression compared to the vehicle group [5]: 4.6 fold | reduction of the increase in TNF-α expression compared to the vehicle group [6]: 6.2 fold | axonal degeneration (βIII-tubulin immunostaining) [3]: inhibited axonal degeneration | reduction in RGC death (compared to vehicle control group) [3]: 4% | RGCs per mm^2 in retina after six weeks [3]: over 3,200 RGCs per mm^2
